Where “and” joins values, the source holds several entries; their conditions need not be identical. Equal entries are not always repeated. Where two headings read alike, the source gives them in different places.
How the values were obtained:
hA3 receptor [1] = molecular target: T1, hA3 receptor (Homo sapiens, UniProt P0DMS8); test: Radioligand equilibrium displacement assay with [3H]PSB-11 on CHOhA3 membranes; assay type: binding; settings: no GTP; for pKi / Ki: 10 °C, 240 min, [3H]PSB-11, CHO cell membranes; for pKi: ± SEM
T1 sequence (P0DMS8 1-318): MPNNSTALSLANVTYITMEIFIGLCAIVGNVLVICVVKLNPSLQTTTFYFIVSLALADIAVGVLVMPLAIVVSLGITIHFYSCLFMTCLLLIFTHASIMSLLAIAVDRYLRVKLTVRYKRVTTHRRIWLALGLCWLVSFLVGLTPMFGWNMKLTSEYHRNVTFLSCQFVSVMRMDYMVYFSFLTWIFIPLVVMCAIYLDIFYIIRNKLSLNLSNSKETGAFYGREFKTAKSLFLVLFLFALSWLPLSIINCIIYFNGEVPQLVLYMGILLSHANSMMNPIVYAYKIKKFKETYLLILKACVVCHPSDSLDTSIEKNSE

hA3 receptor [2] = molecular target: T1, hA3 receptor; test: Dual-point competition association assay with [3H]PSB-11; assay type: binding; settings: no GTP; t1 20 min, t2 240 min; agonist at IC50; 10 °C
hA3 receptor [3] = molecular target: T1, hA3 receptor; test: Competition association assay with [3H]PSB-11; assay type: binding; settings: no GTP; for koff / kon: 10 °C, ± SEM; for RT (residence time): RT = 1/(60*koff); for mean pKD (kinetic): from KD = koff/kon; for Kd: read-out: Kinetic KD, KD = koff/kon
pain models = settings: five-day period; daily injection or implanted mini-pump; rat; cited from earlier work

pKi (hA3 receptor [1]) | Ki (hA3 receptor [1]; read-out: mean Ki) | koff (hA3 receptor [3]) | kon (hA3 receptor [3]) | RT (residence time) (hA3 receptor [3]) | mean pKD (kinetic) (hA3 receptor [3]) | Kd (hA3 receptor [3]) | Structure (SMILES) | further results
8.5 ± 0.09 | 3.6 nM | (1.8 ± 0.3) × 10^-5 s^-1 | (4.0 ± 0.8) × 10^5 M^-1 s^-1 | 909 ± 165 min | 10.3 | 0.046 ± 0.013 nM | CNC(=O)C12CC1C(n1cnc3c(NCc4cccc(Cl)c4)nc(C#Cc4ccccc4)nc31)C(O)C2O (stereo not shown) [MRS5655] | –
– | – | very slow | – | – | – | – | CNC(=O)[C@@]12C[C@@H]1[C@@H](n1cnc3c(NCc4cccc(Cl)c4)nc(C#Cc4ccc(-c5ccccc5)cc4)nc31)[C@H](O)[C@@H]2O [MRS5679] | Ki (hA3 receptor [1]; mean Ki): 82 nM
8.3 ± 0.08 | 5.2 nM | (8.5 ± 0.3) × 10^-5 s^-1 | (3.2 ± 1.2) × 10^5 M^-1 s^-1 | 196 ± 8 min | 9.6 | 0.27 ± 0.1 nM | CNC(=O)[C@@]12C[C@@H]1[C@@H](n1cnc3c(NC)cc(C#Cc4ccc(Cl)s4)nc31)[C@H](O)[C@@H]2O [MRS7140] | –
8.7 ± 0.06 | 2.2 nM | (6.2 ± 1.2) × 10^-5 s^-1 | (4.0 ± 0.7) × 10^5 M^-1 s^-1 | 270 ± 51 min | 9.8 | 0.15 ± 0.04 nM | CCCNc1nc(C#Cc2ccc(Cl)s2)nc2c1ncn2[C@H]1[C@H](O)[C@H](O)[C@]2(C(=O)NC)C[C@H]12 [MRS7154] | –
– | 618 nM | – | – | – | – | – | CNC(=O)C12CC1C(n1cnc3c(N(C)C)nc(C#Cc4ccc(Cl)s4)nc31)C(O)C2O (stereo not shown) [MRS7158] | –

Further lines, the molecule ahead of its results:

Structure (SMILES) | pKi (hA3 receptor [1]) | Ki (hA3 receptor [1]; read-out: mean Ki) | koff (hA3 receptor [3]) | kon (hA3 receptor [3]) | RT (residence time) (hA3 receptor [3]) | mean pKD (kinetic) (hA3 receptor [3]) | Kd (hA3 receptor [3]) | further results
CNC(=O)[C@H]1O[C@@H](n2cnc3c(NCc4cccc(I)c4)ncnc32)[C@H](O)[C@@H]1O [IB-MECA, 1-deoxy-1-[6-[((3-Iodophenyl)methyl)amino]-9H-purin-9-yl]-N-methyl-β-D-ribofuranuronamide, reference compound] | – | – | – | – | – | – | – | Hill Slope (hA3 receptor [1]; displacement curves): -0.94 ± 0.05 ^ns
OC[C@H]1O[C@@H](n2cnc3c(Nc4ccc(Cl)cc4)ncnc32)[C@H](O)[C@@H]1O [LUF5500] | 7.3 ± 0.03 | 51 nM | – | – | – | – | – | KRI (Kinetic Rate Index) (hA3 receptor [2]): 0.98 (0.95; 1.01)
OC[C@H]1O[C@@H](n2cnc3c(Nc4cccc(Cl)c4)ncnc32)[C@H](O)[C@@H]1O [LUF5501] | 7.5 ± 0.02 | 31 nM | (1.6 ± 0.2) × 10^-3 s^-1 | (1.7 ± 0.2) × 10^5 M^-1 s^-1 | 10 ± 1.3 min | 8.0 | 9.2 ± 1.4 nM | difference between kinetic pKD and pKi (hA3 receptor [3]; pKD higher than pKi): 0.5 log-unit
OC[C@H]1O[C@@H](n2cnc3c(Nc4ccc(I)cc4)ncnc32)[C@H](O)[C@@H]1O [LUF5506] | 7.6 ± 0.08 | 29 nM | – | – | – | – | – | –
CNC(=O)[C@H]1O[C@@H](n2cnc3c(N)ncnc32)[C@H](O)[C@@H]1O [MECA, 5′-N-methylcarboxamidoadenosine, reference compound] | 7.4 ± 0.04 | 42 nM | – | – | – | – | – | KRI (Kinetic Rate Index) (hA3 receptor [2]): 1.24 and 1.24 ± 0.09
CNC(=O)C12CC1C(n1cnc3c(NC)nc(C#Cc4ccc(-c5ccccc5)cc4)nc31)C(O)C2O (stereo not shown) [MRS5667] | 8.3 ± 0.05 | 4.6 nM | (1.1 ± 0.3) × 10^-5 s^-1 | (1.8 ± 0.3) × 10^5 M^-1 s^-1 | 1563 ± 464 min | 10.2 | 0.058 ± 0.02 nM | –
CNC(=O)[C@@]12C[C@@H]1[C@@H](n1cnc3c(NCc4cccc(Cl)c4)nc(C#Cc4ccc(F)c(F)c4)nc31)[C@H](O)[C@@H]2O [MRS5698] | – | – | – | – | – | – | – | efficacy on prolonged exposure in in vivo pain models (pain models): maintained full efficacy

From article PMC5959751 (Biochemical pharmacology, 2018)
